Data reported in ChEMBL document CHEMBL4387753 (Bioorg Med Chem, 2019).
Values after ≈ are worked out from the molar mass of the structure shown. Active and inactive are the calls of the source. The rule behind the calls is not given here.

Key:
Escherichia coli = assay: Antibacterial activity against Escherichia coli ATCC 25922 incubated for 24 hrs by CLSI protocol based broth microdilution method; format: functional; conditions: ATCC 25922, 24 h
Bacillus subtilis = assay: Antibacterial activity against Bacillus subtilis ATCC 9372 incubated for 24 hrs by CLSI protocol based broth microdilution method; format: functional; conditions: ATCC 9372, 24 h
Staphylococcus aureus [1] = assay: Antibacterial activity against penicillin-resistant Staphylococcus aureus clinical isolate incubated for 24 hrs by CLSI protocol based broth microdilution method; format: functional
Staphylococcus aureus [2] = assay: Ratio of MBC for Staphylococcus aureus ATCC 25923 to MIC for Staphylococcus aureus ATCC 25923; format: functional
Staphylococcus aureus [3] = assay: Bactericidal activity against penicillin-resistant Staphylococcus aureus clinical isolate assessed as 3 log reduction in number of colony forming units incubated for 24 hrs followed by aliquots transfer to tryptic soy agar and grown for 24 hrs; format: functional
Bacillus pumilus = assay: Antibacterial activity against Bacillus pumilus CMCC63202 incubated for 24 hrs by CLSI protocol based broth microdilution method; format: functional; conditions: CMCC63202, 24 h
Staphylococcus aureus [4] = assay: Antibacterial activity against Staphylococcus aureus clinical isolate incubated for 24 hrs by CLSI protocol based broth microdilution method; format: functional
Staphylococcus aureus [5] = assay: Antibacterial activity against Staphylococcus aureus ATCC 25923 incubated for 24 hrs by CLSI protocol based broth microdilution method; format: functional; conditions: ATCC 25923, 24 h
Staphylococcus aureus [6] = assay: Bactericidal activity against methicillin-resistant Staphylococcus aureus ATCC 43300 assessed as log reduction in viable bacterial count at 2 ug/ml incubated for 24 hrs by time-kill curve assay; format: functional
Pseudomonas aeruginosa = assay: Antibacterial activity against Pseudomonas aeruginosa ATCC 27853 incubated for 24 hrs by CLSI protocol based broth microdilution method; format: functional; conditions: ATCC 27853, 24 h
Staphylococcus aureus [7] = assay: Bactericidal activity against Staphylococcus aureus ATCC 25923 assessed as 3 log reduction in number of colony forming units incubated for 24 hrs followed by aliquots transfer to tryptic soy agar and grown for 24 hrs; format: functional; conditions: ATCC 25923, 24 h
Staphylococcus aureus [8] = assay: Antibacterial activity against methicillin-resistant Staphylococcus aureus ATCC 43300 incubated for 24 hrs by CLSI protocol based broth microdilution method; format: functional; conditions: ATCC 43300, 24 h
Staphylococcus aureus [9] = assay: Bactericidal activity against Staphylococcus aureus ATCC 43300 assessed as 3 log reduction in number of colony forming units incubated for 24 hrs followed by aliquots transfer to tryptic soy agar and grown for 24 hrs; format: functional; conditions: ATCC 43300, 24 h
Staphylococcus aureus [10] = assay: Bactericidal activity against methicillin-resistant Staphylococcus aureus ATCC 43300 assessed as log reduction in viable bacterial count at 4 ug/ml incubated for 24 hrs by time-kill curve assay; format: functional
[11] = biological target: T1, Cell division protein FtsZ (Bacillus subtilis (strain 168)) (UniProt P17865); assay: Induction of Bacillus subtilis FtsZ polymerization in presence of GTP at 5 ug/ml measured over 30 mins by microtiter plate-based light-scattering assay
T1 sequence (whole entry): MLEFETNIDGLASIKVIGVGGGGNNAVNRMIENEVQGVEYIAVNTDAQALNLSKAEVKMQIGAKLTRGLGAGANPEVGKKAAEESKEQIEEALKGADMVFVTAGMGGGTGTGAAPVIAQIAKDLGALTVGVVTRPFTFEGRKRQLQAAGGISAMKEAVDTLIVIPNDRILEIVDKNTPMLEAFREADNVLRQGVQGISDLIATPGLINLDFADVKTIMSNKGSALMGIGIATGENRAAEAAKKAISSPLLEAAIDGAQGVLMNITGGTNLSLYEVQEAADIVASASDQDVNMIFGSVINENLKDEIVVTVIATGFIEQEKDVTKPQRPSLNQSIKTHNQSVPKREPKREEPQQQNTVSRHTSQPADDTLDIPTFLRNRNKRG

[12] = Half life in mouse liver microsomes in presence of NADPH by RP-HPLC analysis; format: ADME, Microsome
[13] = Stability in mouse plasma assessed as degradation of compound at 25 ug/ml incubated for 24 hrs by RP-HPLC analysis; format: ADME, cell-free
[14] = Clearance in mouse liver microsomes incubated for 20 mins in presence of NADPH by RP-HPLC analysis; format: ADME, Microsome

`NC(=O)c1c(F)ccc(OCc2nc3cc(Cl)cnc3s2)c1F` showed an MIC (Escherichia coli) greater than 64 µg/mL, an MIC (Bacillus subtilis) of 0.5 µg/mL (≈ 1.41 µM) and an MIC (Staphylococcus aureus [1]) of 1 µg/mL (≈ 2.81 µM). It also gave a Ratio (Staphylococcus aureus [2]) of 1, an MBC (Staphylococcus aureus [3]) of 1 µg/mL (≈ 2.81 µM) and an MIC (Bacillus pumilus) of 0.5 µg/mL (≈ 1.41 µM). It also gave an MIC (Staphylococcus aureus [4]) of 0.5 µg/mL (≈ 1.41 µM), an MIC (Staphylococcus aureus [5]) of 1 µg/mL (≈ 2.81 µM) and an Activity (Staphylococcus aureus [6]) of 4 log10CFU/ml. It also gave an MIC (Pseudomonas aeruginosa) greater than 64 µg/mL, an MBC (Staphylococcus aureus [7]) of 1 µg/mL (≈ 2.81 µM) and an MIC (Staphylococcus aureus [8]) of 1 µg/mL (≈ 2.81 µM). For the same molecule, the MBC (Staphylococcus aureus [9]) was 1 µg/mL (≈ 2.81 µM).
`CC(=O)NC[C@H]1CN(c2ccc(N3CCOCC3)c(F)c2)C(=O)O1` [LINEZOLID] showed an Activity (Staphylococcus aureus [10]) of 1 log10CFU/ml, an MIC (Escherichia coli) greater than 64 µg/mL and an MIC (Bacillus subtilis) of 0.5 µg/mL (≈ 1.48 µM). The Activity [11] was “inactive”, the MBC (Staphylococcus aureus [3]) was greater than 64 µg/mL and the MIC (Bacillus pumilus) was 2 µg/mL (≈ 5.93 µM). It also gave an MIC (Staphylococcus aureus [4]) of 1 µg/mL (≈ 2.96 µM), an MIC (Pseudomonas aeruginosa) greater than 64 µg/mL and an MBC (Staphylococcus aureus [7]) greater than 64 µg/mL. For the same molecule, the MBC (Staphylococcus aureus [9]) was greater than 64 µg/mL.
For `NC(=O)c1c(F)ccc(OCn2nc(-c3ccc(Cl)cc3)oc2=O)c1F`, the MIC (Escherichia coli) was greater than 64 µg/mL, the MIC (Bacillus subtilis) was greater than 64 µg/mL and the MIC (Staphylococcus aureus [1]) was greater than 64 µg/mL. The Activity [11] was “inactive”, the MIC (Bacillus pumilus) was greater than 64 µg/mL and the MIC (Staphylococcus aureus [4]) was greater than 64 µg/mL. For the same molecule, the MIC (Staphylococcus aureus [5]) was greater than 64 µg/mL, the MIC (Pseudomonas aeruginosa) was greater than 64 µg/mL and the MIC (Staphylococcus aureus [8]) was greater than 64 µg/mL.
For `NC(=O)c1c(F)ccc(OCc2nn(-c3ccc(Br)cc3)c(=O)[nH]2)c1F`, the half-life [12] was greater than 1.5 h, the MIC (Escherichia coli) was greater than 64 µg/mL and the MIC (Bacillus subtilis) was greater than 64 µg/mL. The MIC (Staphylococcus aureus [1]) was greater than 64 µg/mL, the Activity [11] was “inactive” and the MIC (Bacillus pumilus) was greater than 64 µg/mL. The MIC (Staphylococcus aureus [5]) was greater than 64 µg/mL, the Stability [13] was “Stable” and the MIC (Pseudomonas aeruginosa) was greater than 64 µg/mL. It also gave an MIC (Staphylococcus aureus [8]) greater than 64 µg/mL and a CLH [14] of 24.3%.
`NC(=O)c1c(F)ccc(OCc2nn(-c3ccc(F)cc3)c(=O)o2)c1F` gave an MIC (Escherichia coli) greater than 64 µg/mL, an MIC (Bacillus subtilis) of 2 µg/mL (≈ 5.48 µM) and an MIC (Staphylococcus aureus [1]) of 16 µg/mL (≈ 43.8 µM). It also gave an MIC (Bacillus pumilus) of 8 µg/mL (≈ 21.9 µM), an MIC (Staphylococcus aureus [4]) of 2 µg/mL (≈ 5.48 µM) and an MIC (Staphylococcus aureus [5]) of 16 µg/mL (≈ 43.8 µM). The MIC (Pseudomonas aeruginosa) was greater than 64 µg/mL and the MIC (Staphylococcus aureus [8]) was 8 µg/mL (≈ 21.9 µM).
Work on `CN[C@H](CC(C)C)C(=O)N[C@H]1C(=O)N[C@@H](CC(N)=O)C(=O)N[C@H]2C(=O)N[C@H]3C(=O)N[C@H](C(=O)N[C@H](C(=O)O)c4cc(O)cc(O)c4-c4cc3ccc4O)[C@H](O)c3ccc(c(Cl)c3)Oc3cc2cc(c3O[C@@H]2O[C@H](CO)[C@@H](O)[C@H](O)[C@H]2O[C@H]2C[C@](C)(N)[C@H](O)[C@H](C)O2)Oc2ccc(cc2Cl)[C@H]1O` [VANCOMYCIN] yielded an MBC (Staphylococcus aureus [3]) of 1 µg/mL (≈ 0.69 µM), an Activity (Staphylococcus aureus [6]) of 4 log10CFU/ml and an MBC (Staphylococcus aureus [7]) of 2 µg/mL (≈ 1.38 µM). It also gave an MBC (Staphylococcus aureus [9]) of 1 µg/mL (≈ 0.69 µM).
Work on `CC(C)(C)n1nc(COc2ccc(F)c(C(N)=O)c2F)oc1=O` yielded an MIC (Escherichia coli) greater than 64 µg/mL, an MIC (Bacillus subtilis) of 32 µg/mL (≈ 97.8 µM) and an MIC (Staphylococcus aureus [1]) greater than 64 µg/mL. For the same molecule, the MIC (Bacillus pumilus) was greater than 64 µg/mL, the MIC (Staphylococcus aureus [4]) was 16 µg/mL (≈ 48.9 µM) and the MIC (Staphylococcus aureus [5]) was greater than 64 µg/mL. It also gave an MIC (Pseudomonas aeruginosa) greater than 64 µg/mL and an MIC (Staphylococcus aureus [8]) greater than 64 µg/mL.
For `CC(C)c1ccc(-n2nc(COc3ccc(F)c(C(N)=O)c3F)oc2=O)cc1`, the MIC (Escherichia coli) was greater than 64 µg/mL, the MIC (Bacillus subtilis) was 1 µg/mL (≈ 2.57 µM) and the MIC (Staphylococcus aureus [1]) was 32 µg/mL (≈ 82.2 µM). For the same molecule, the MIC (Bacillus pumilus) was 2 µg/mL (≈ 5.14 µM), the MIC (Staphylococcus aureus [4]) was 16 µg/mL (≈ 41.1 µM) and the MIC (Staphylococcus aureus [5]) was 16 µg/mL (≈ 41.1 µM). For the same molecule, the MIC (Pseudomonas aeruginosa) was greater than 64 µg/mL and the MIC (Staphylococcus aureus [8]) was 16 µg/mL (≈ 41.1 µM).
Molecule `Cc1cccc(-n2nc(COc3ccc(F)c(C(N)=O)c3F)oc2=O)c1` has an MIC (Escherichia coli) greater than 64 µg/mL, an MIC (Bacillus subtilis) of 16 µg/mL (≈ 44.3 µM) and an MIC (Staphylococcus aureus [1]) greater than 64 µg/mL. It also gave an MIC (Bacillus pumilus) of 64 µg/mL (≈ 177 µM), an MIC (Staphylococcus aureus [4]) of 64 µg/mL (≈ 177 µM) and an MIC (Staphylococcus aureus [5]) of 64 µg/mL (≈ 177 µM). The MIC (Pseudomonas aeruginosa) was greater than 64 µg/mL and the MIC (Staphylococcus aureus [8]) was 64 µg/mL (≈ 177 µM).
`NC(=O)c1c(F)ccc(OCC2=NN(c3ccc(Br)cc3)C(=O)C2)c1F` gave an MIC (Escherichia coli) greater than 64 µg/mL, an MIC (Bacillus subtilis) greater than 64 µg/mL and an MIC (Staphylococcus aureus [1]) greater than 64 µg/mL. The Activity [11] was “inactive”, the MIC (Bacillus pumilus) was greater than 64 µg/mL and the MIC (Staphylococcus aureus [5]) was greater than 64 µg/mL. For the same molecule, the MIC (Pseudomonas aeruginosa) was greater than 64 µg/mL and the MIC (Staphylococcus aureus [8]) was greater than 64 µg/mL.
